PubChem BioAssay AID504868 (The Scripps Research Institute Molecular Screening Center, 2011)
Several values for one entry are separate records, joined by “and”; a condition that tells them apart may be missing. Identical values can stand only once. Activity calls are given as the source filed them. How the calls were made is not given here.

Target: Neuropeptides B/W receptor type 1 (Homo sapiens) (UniProt P48145)
Assay: antagonism of neuropeptide B/W receptor GPR7 – cell-based, fluorescence, dose response, set 2, late-stage follow-up (AID 504868)
Details: GPR7-expressing cells, fluorescence antagonist readout

SMILES	IC50 (run 1)	IC50 (run 2)	IC50 (run 3)
COc1ccc(Oc2c(C3CC3)cnn(-c3ccc(C)cc3)c2=O)cc1	6220 nM	4000 nM	
COc1ccc(Oc2c(C#N)cnn(-c3ccc(C(C)C)cc3)c2=O)cc1	4190 nM	2410 nM	
COc1ccc(Oc2c(-c3ccccc3)cnn(-c3ccc(C)cc3)c2=O)cc1	> 20000 nM (inactive)	> 20000 nM (inactive)	> 20000 nM (inactive)
Cc1ccc(-n2ncc(Cl)c(Oc3ccc(C(F)(F)F)cc3)c2=O)cc1	2160 nM	1050 nM	1800 nM
COc1ccc(Oc2c(C)cnn(-c3ccc(C(C)C)cc3)c2=O)cc1	7480 nM	7220 nM	
Cc1ccc(-n2ncc(Cl)c(Oc3ccc(CO)cc3)c2=O)cc1	2260 nM	844 nM	1710 nM
COc1ccc(Oc2c(Cl)cnn(-c3ccc(C)cc3)c2=O)cc1	1010 nM and 2230 nM	741 nM and 1420 nM	1350 nM
Cc1ccc(-n2ncc(Cl)c(Oc3ccc(OC(F)(F)F)cc3)c2=O)cc1	878 nM	518 nM	836 nM
COc1ccc(Oc2c(C=O)cnn(-c3ccc(C(C)C)cc3)c2=O)cc1	6200 nM	4410 nM	
COC(=O)c1cnn(-c2ccc(C(C)C)cc2)c(=O)c1Oc1ccc(OC)cc1	2730 nM	1880 nM	
